Drawing on patent US4596875A, “Preparation of amides of 4-hydroxy-3-quinoline-carboxylic acid” (Roussel Uclaf, priority 1982, dated 1986), this text covers ED50 for two molecules.

A short description of assay [1]: Analgesic activity: acetic acid-provoked stretching test based on Koster et al. It counts as in vivo. Conditions: Mus musculus; mice, oral, 30 minutes before intraperitoneal acetic acid (1% solution, 0.01 ml/g); fasted 24 hours; 15 minute observation; read-out: DA50 (dose which diminished the number of stretchings by 50% as compared to the controls). The procedure: The test was based on that of Koster et al [Fed. Proc., Vol. 1B (1959), p. 412] in which mice received an intraperitoneal injection of acetic acid to provoke repeated stretching and twisting movements which persist for more than 6 hours. An analgesic prevents or reduces this syndrome which is considered to be an exteriorization of a diffuse abdominal pain. A 1% solution of acetic acid in water was used and the dose […] the syndrome under these conditions was 0.01 ml/g or 100 mg/kg of acetic acid.
The test compound was orally administered to the mice 30 minutes before the acetic acid injection and the mice had been fasting for the previous 24 hours. The stretchings were counted for each mouse for a 15 minute observation period after the acetic acid injection and the dose which diminished the number of stretchings by 50% as compared to the controls (DA50) was 1.2 and 0.3 mg/kg for the compounds of Example 2 and 10 respectively.

A short description of assay [2]: Anti-inflammatory activity: edema test provoked by carraghenin. The format is in vivo. Particulars: Rattus norvegicus; male rats 130 to 150 g, oral, simultaneous with 0.05 ml of 1% carraghenin in rear paw; paw volume at 2,4,6,8 and 24 hours; read-out: DA50 (dose which reduced the edema by 50%). The procedure:
The anti-inflammatory activity was determined by the edema test provoked by carraghenin in male rats weighing about 130 to 150 g which received 0.05 ml of sterile suspension of 1% carraghenin into the tibiotarsien articulation of the rear paw. Simultaneously the test product in a suspension of 0.25% carboxymethyl cellulose and 0.02% of Tween was orally administered. The volume of the paw was measured before the test and then 2,4,6,8 and 24 hours later. The intensity of inflammation was maximum at 4 to 6 hours after the injection of carraghenin and the differences in paw volume of controls and treated animals were evidence of anti-inflammatory action. The DA50 dose which is that which reduced the edema by 50% was 15 and 12 mg/kg for the products of Examples 2 and 10 respectively.

On to `CC(O)c1nc2c(C(F)(F)F)cccc2c(O)c1C(=O)Nc1nccs1` (stereo not shown) [Example 2, 4-hydroxy-2-(1-hydroxyethyl)-N-(2-thiazolyl)-8-trifluoromethyl-3-quinoline-carboxamide], for which the ED50 in assay [1] was 1.2 mg/kg; in assay [2], 15 mg/kg.
Regarding `CCC(O)c1nc2c(C(F)(F)F)cccc2c(O)c1C(=O)Nc1nccs1` (stereo not shown) [Example 10, 4-hydroxy-2-(1-hydroxy-propyl)-N-(2-thiazolyl)-8-trifluoromethyl-3-quinoline-carboxamide], the ED50 was 0.3 mg/kg in assay [1] and 12 mg/kg in assay [2].
